Data as given in patent publication US6030823A, “D-aminoacylase” (Daicel Chemical Industries, Ltd., priority 1998, dated 2000).
Like-named read-outs stand apart in the source and are kept apart here.

Key:
[1] = tested on: Sebekia benihana IFO14309; assay: Induction of D-aminoacylase, experiment 2 (seed culture, PY liquid medium, 0.10% inducer); type: cell-based; details: 20 mM N-acetyl-D-methionine, 30° C., 10 min
Protocol: Second, a seed culture was prepared by incubating the strain in test tubes, each containing 5.0 ml of PY liquid medium for 71 hours. Then, 0.4 ml of the seed culture was inoculated with a 2-ml Komagome pipette into test tubes, each containing 8.0 ml of PY liquid medium supplemented with 0.10% DL-glutamine, 0.10% DL-histidine, 0.10% DL-isoleucine, 0.10% DL-phenylalanine, 0.10% proline, 0.10% DL-threonine, 0.10% DL-tryptophan, or 0.10% DL-valine as inducers, and cultivated for 74 hours with shaking (experiment 2).
(§1) From the culture broth obtained in experiments 1, 2, and 3, the cells were collected by centrifugation at 8000 rpm (7000×g) for 20 min with a refrigerated centrifuge (Hitachi Koki Co., Ltd.). The collected cells were washed with 50 mM Tris-HCl buffer (pH 7.5), collected again by centrifugation using the same centrifuge, then stored at -20° C.
(§2) The stored cells were suspended in 20 ml of 50 mM Tris-HCl buffer (pH 7.5) and were disrupted by sonication at 200 W for 15 min. The lysate was centrifuged at 15,000 rpm for 30 min with the above centrifuge, and the supernatant was obtained as a crude enzyme solution.
(§3) The enzymatic reaction was performed in 1.0 ml of a reaction system containing 20 mM N-acetyl-D-methionine, 50 mM Tris-HCl buffer (pH 7.5), 1 mM CoCl2, and 100 μl of the enzyme solution at 30° C. for 20 min (experiment 1), 10 min (experiment 2), and 5 min (experiment 3). The reaction was stopped by adding a TCA solution.

[2] = tested on: Sebekia benihana IFO14309; assay: Induction of D-aminoacylase, experiment 1 (PY liquid medium, 0.10% inducer); type: cell-based; details: 20 mM N-acetyl-D-methionine, 30° C., 20 min
Protocol: First, Sebekia benihana IFO14309 was cultured with shaking for 74 hours in test tubes, each containing 8.0 ml of PY liquid medium (0.2% glycerol, 2.0% yeast extract, 2.0% polypeptone, pH 7.3) supplemented with 0.10% DL-leucine, 0.10% N-acetyl-DL-leucine, 0.10% DL-methionine, 0.10% N-acetyl-DL-methionine, DL-valine, or 0.10% N-acetyl-DL-valine as inducers (experiment 1).
as §1, §2, §3

[3] = tested on: D-aminoacylase derived from Sebekia benihana IFO14309; assay: Influences of inhibitors on the activity of the enzyme; type: biochemical
Protocol: (§4) The enzymatic reaction was performed in the same manner as in (1) except that the metal salts and enzyme inhibitors listed in Tables 10 and 11 (1 mM or 10 mM) were added to the reaction mixture.

[4] = tested on: D-aminoacylase derived from Sebekia benihana IFO14309; type: biochemical
Protocol: as §4

[5] = tested on: Sebekia benihana IFO14309; assay: Induction of D-aminoacylase, experiment 3 (seed culture, 231 liquid medium, 0.05% inducer); type: cell-based; details: for Activity / Specific activity: experiment 3, 20 mM N-acetyl-D-methionine, 30° C., 5 min; for Induction of the enzyme (in words): used as inducers (Table 3)
Protocol: Third, a seed culture was prepared by incubating the strain in test tubes, each containing 5.0 ml of PY liquid medium for 51 hours with shaking. The seed culture (0.4 ml) was then inoculated with a 2-ml Komagome pipette into test tubes, each containing 8.0 ml of 231 liquid medium (1.0% maltose; 0.2% N.Z.Amine, Type A; 0.1% yeast extract; 0.1% meat extract; pH 7.3) supplemented with 0.05% D-phenylalanine, 0.05% D-tryptophan, 0.05% D-valine, 0.05% L-phenylalanine, 0.05% L-tryptophan, or 0.05% L-valine as inducers, and cultivated for 48 hours with shaking (experiment 3).
as §1, §2, §3

With `NC(Cc1c[nH]cn1)C(=O)O` (racemic) [DL-His, DL-histidine] the Activity [1] was 0.0144 U/ml of broth and the Specific activity [1] was 0.0064 U/mg.

`CC[C@H](C)[C@H](N)C(=O)O` (racemic) [DL-Ile, DL-isoleucine] was tested, and the Activity [1] was 0.214 U/ml of broth and the Specific activity [1] was 0.0799 U/mg.

In the case of `CC(C)CC(N)C(=O)O` (racemic) [DL-Leucine, DL-leucine], the Activity [2] is reported as 0.315 U/ml of broth and the Specific activity [2] is reported as 0.0967 U/mg.

In the case of `CSCCC(N)C(=O)O` (racemic) [DL-Methionine, DL-methionine], the Activity [2] is reported as 0.177 U/ml of broth and the Specific activity [2] is reported as 0.0475 U/mg.

For `NC(Cc1ccccc1)C(=O)O` (racemic) [DL-Phe, DL-phenylalanine], the Activity [1] was 0.190 U/ml of broth and the Specific activity [1] was 0.0701 U/mg.

For `O=C(O)[C@@H]1CCCN1` (racemic) [DL-Pro, proline], the Activity [1] was 0.00867 U/ml of broth and the Specific activity [1] was 0.00286 U/mg.

In the case of `C[C@@H](O)[C@H](N)C(=O)O` (racemic) [DL-Thr, DL-threonine], the Activity [1] is reported as 0.0163 U/ml of broth and the Specific activity [1] is reported as 0.00587 U/mg.

`NC(Cc1c[nH]c2ccccc12)C(=O)O` (racemic) [DL-Trp, DL-tryptophan] was tested, and the Activity [1] was 0.312 U/ml of broth and the Specific activity [1] was 0.119 U/mg.

With `CC(C)C(N)C(=O)O` (racemic) [DL-Valine, DL-valine] the Activity [1] was 0.239 U/ml of broth, the Specific activity [1] was 0.0920 U/mg and the Activity [2] was 0.429 U/ml of broth. The Specific activity [2] was 0.133 U/mg.

With `CC(=O)NC(CC(C)C)C(=O)O` (racemic) [N-Ac-DL-Leucine, N-acetyl-DL-leucine] the Activity [2] was 0.158 U/ml of broth and the Specific activity [2] was 0.0545 U/mg.

In the case of `CSCCC(NC(C)=O)C(=O)O` (racemic) [N-Ac-DL-Methionine, N-acetyl-DL-methionine], the Activity [2] is reported as 0.0713 U/ml of broth and the Specific activity [2] is reported as 0.0186 U/mg.

With `CC(=O)NC(C(=O)O)C(C)C` (racemic) [N-Ac-DL-Valine, N-acetyl-DL-valine] the Activity [2] was 0.114 U/ml of broth and the Specific activity [2] was 0.0341 U/mg.

`c1ccc(-c2ccccn2)nc1` [2,2'-Bipyridyl] was tested, and the D-Met ([3]; inhibitor 1 mM) was 1.6 mM, the Residual activity ([3]; inhibitor 1 mM) was 100% and the D-Met ([3]; inhibitor 10 mM) was 1.4 mM. It also gave a Residual activity ([3]; inhibitor 10 mM) of 88%.

`[Ba+2].[Cl-].[Cl-]` [BaCl2] gave a D-Met ([4]; metal salt 1 mM) of 1.2 mM, a Residual activity ([4]; metal salt 1 mM) of 100% and a D-Met ([4]; metal salt 10 mM) of 1.1 mM. It also gave a Residual activity ([4]; metal salt 10 mM) of 92%.

Compound `[Ca+2].[Cl-].[Cl-]` [CaCl2] has a D-Met ([4]; metal salt 1 mM) of 1.3 mM, a Residual activity ([4]; metal salt 1 mM) of 108% and a D-Met ([4]; metal salt 10 mM) of 1.1 mM. It also gave a Residual activity ([4]; metal salt 10 mM) of 92%.

For `[Cl-].[Cl-].[Co+2]` [CoCl2], the “Effect of metal ions on the enzyme (in words)” value [4] was “inhibited”, the D-Met ([4]; metal salt 1 mM) was 0.65 mM and the Residual activity ([4]; metal salt 1 mM) was 54%. For the same compound, the D-Met ([4]; metal salt 10 mM) was 0.11 mM and the Residual activity ([4]; metal salt 10 mM) was 9.2%.

In the case of `[Cl][Cu][Cl]` [CuCl2], the “Effect of metal ions on the enzyme (in words)” value [4] is reported as “inhibited”, the D-Met ([4]; metal salt 1 mM) is reported as 0.13 mM and the Residual activity ([4]; metal salt 1 mM) is reported as 11%. The D-Met ([4]; metal salt 10 mM) was 0 mM and the Residual activity ([4]; metal salt 10 mM) was 0%.

`N[C@H](Cc1ccccc1)C(=O)O` [D-Phe, D-phenylalanine] was tested, and the Activity [5] was 0.479 U/ml of broth, the Specific activity [5] was 0.303 U/mg and the “Induction of the enzyme (in words)” value [5] was “induced well”.

For `N[C@H](Cc1c[nH]c2ccccc12)C(=O)O` [D-Trp, D-tryptophan], the Activity [5] was 0.913 U/ml of broth, the Specific activity [5] was 0.537 U/mg and the “Induction of the enzyme (in words)” value [5] was “induced well”.

For `CC(C)[C@@H](N)C(=O)O` [D-Val, D-valine], the Activity [5] was 1.27 U/ml of broth, the Specific activity [5] was 0.780 U/mg and the “Induction of the enzyme (in words)” value [5] was “induced well”.

`OC(CS)C(O)CS` (stereo not shown) [DTT] was tested, and the D-Met ([3]; inhibitor 1 mM) was 0.13 mM, the Residual activity ([3]; inhibitor 1 mM) was 8.1% and the D-Met ([3]; inhibitor 10 mM) was 0.055 mM. It also gave a Residual activity ([3]; inhibitor 10 mM) of 3.4%.
